In PMC5290327, “SC83288 is a clinical development candidate for the treatment of severe malaria” (Nature Communications, 2017):

How the values were obtained:
Experiment in all cases: KINOMEscan
Type in all cases: binding
Settings in all cases: read-out: Remaining enzyme activity
BMX = molecular target: T1, BMX (Homo sapiens, UniProt P51813)
T1 construct: purchased Ambit (DiscoverX) KINOMEscan; Cerep
Procedure, shortened: (§1)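 SC81458 was screened at a single 10 μM final concentration for its ability to compete with an immobilized, active-site directed ligand for each kinase. Kinase in the eluates was measured by quantitative PCR. Beads were blocked with biotin and SeaBlock buffer holding 1% BSA, 0.05% Tween 20 and 1 mM DTT.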

AMPK-alpha2 = molecular target: T2, AMPK-alpha2 (Homo sapiens, UniProt P54646)
T2 construct: purchased Ambit (DiscoverX) KINOMEscan; Cerep
Procedure, shortened: as §1

NLK = molecular target: T3, NLK (Homo sapiens, UniProt Q9UBE8)
T3 construct: purchased Ambit (DiscoverX) KINOMEscan; Cerep
Procedure, shortened: as §1

ICK = molecular target: T4, ICK (Homo sapiens, UniProt Q9UPZ9)
T4 construct: purchased Ambit (DiscoverX) KINOMEscan; Cerep
Procedure, shortened: as §1

MST4 = molecular target: T5, MST4 (Homo sapiens, UniProt Q9P289)
T5 construct: purchased Ambit (DiscoverX) KINOMEscan; Cerep
Procedure, shortened: as §1

[1] = molecular target: T6, RPS6KA4(Kin.Dom.1-N-term) (Homo sapiens, UniProt O75676)
T6 construct: RPS6KA4(Kin.Dom.1-N-term); purchased Ambit (DiscoverX) KINOMEscan; Cerep
Procedure, shortened: as §1

MEK1 = molecular target: T7, MEK1 (Homo sapiens, UniProt Q02750)
T7 construct: purchased Ambit (DiscoverX) KINOMEscan; Cerep
T7 sequence (Q02750 whole entry): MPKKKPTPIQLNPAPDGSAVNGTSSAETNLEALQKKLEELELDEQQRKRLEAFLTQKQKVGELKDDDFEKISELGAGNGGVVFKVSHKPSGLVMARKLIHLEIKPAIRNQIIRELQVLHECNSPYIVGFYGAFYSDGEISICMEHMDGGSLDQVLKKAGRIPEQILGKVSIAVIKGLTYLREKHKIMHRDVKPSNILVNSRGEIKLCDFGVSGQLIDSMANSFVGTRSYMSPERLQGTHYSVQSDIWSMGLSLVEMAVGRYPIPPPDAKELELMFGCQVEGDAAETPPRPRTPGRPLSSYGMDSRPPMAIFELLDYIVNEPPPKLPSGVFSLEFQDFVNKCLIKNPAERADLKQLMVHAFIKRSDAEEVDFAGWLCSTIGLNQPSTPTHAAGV
Procedure, shortened: as §1

MYO3b = molecular target: T8, MYO3b (Homo sapiens, UniProt Q8WXR4)
T8 construct: purchased Ambit (DiscoverX) KINOMEscan; Cerep
Procedure, shortened: as §1

PAK2 = molecular target: T9, PAK2 (Homo sapiens, UniProt Q13177)
T9 construct: purchased Ambit (DiscoverX) KINOMEscan; Cerep
Procedure, shortened: as §1

ERK5 = molecular target: T10, ERK5 (Homo sapiens, UniProt Q13164)
T10 construct: purchased Ambit (DiscoverX) KINOMEscan; Cerep
T10 sequence (Q13164 whole entry): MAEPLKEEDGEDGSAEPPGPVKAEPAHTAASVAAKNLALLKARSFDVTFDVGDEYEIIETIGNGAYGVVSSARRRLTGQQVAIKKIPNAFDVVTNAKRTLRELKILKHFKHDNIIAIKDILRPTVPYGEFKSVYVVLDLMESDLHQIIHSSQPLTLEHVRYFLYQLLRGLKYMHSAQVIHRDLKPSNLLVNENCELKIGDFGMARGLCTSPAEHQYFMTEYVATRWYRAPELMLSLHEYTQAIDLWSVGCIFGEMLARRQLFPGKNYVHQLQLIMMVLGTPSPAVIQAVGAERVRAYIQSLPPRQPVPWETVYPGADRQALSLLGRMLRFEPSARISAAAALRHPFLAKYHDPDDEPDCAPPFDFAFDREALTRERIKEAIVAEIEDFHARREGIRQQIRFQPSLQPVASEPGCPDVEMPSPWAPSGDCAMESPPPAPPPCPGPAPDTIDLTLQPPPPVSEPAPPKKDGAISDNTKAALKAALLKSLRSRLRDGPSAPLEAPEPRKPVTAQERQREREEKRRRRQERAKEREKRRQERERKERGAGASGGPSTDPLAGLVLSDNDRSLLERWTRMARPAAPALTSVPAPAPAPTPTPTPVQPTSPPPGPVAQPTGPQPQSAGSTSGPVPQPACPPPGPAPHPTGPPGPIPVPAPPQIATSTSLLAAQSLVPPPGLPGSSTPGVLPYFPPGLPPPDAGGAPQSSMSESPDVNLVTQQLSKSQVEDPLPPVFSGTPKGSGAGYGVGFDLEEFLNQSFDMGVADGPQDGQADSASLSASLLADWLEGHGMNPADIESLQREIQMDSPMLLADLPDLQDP
Procedure, shortened: as §1

EGFR(E46-A750del) = molecular target: T11, EGFR(E46-A750del) (Homo sapiens, UniProt P00533, DEL746-750)
T11 construct: purchased Ambit (DiscoverX) KINOMEscan; Cerep
Procedure, shortened: as §1

IKK-epsilon = molecular target: T12, IKK-epsilon (Homo sapiens, UniProt Q14164)
T12 construct: purchased Ambit (DiscoverX) KINOMEscan; Cerep
Procedure, shortened: as §1

PIK3CA(H1047Y) = molecular target: T13, PIK3CA(H1047Y) (Homo sapiens, UniProt P42336, H1047Y)
T13 construct: purchased Ambit (DiscoverX) KINOMEscan; Cerep
Procedure, shortened: as §1

PIK3Cb = molecular target: T14, PIK3Cb (Homo sapiens, UniProt P42338)
T14 construct: purchased Ambit (DiscoverX) KINOMEscan; Cerep
T14 sequence (P42338 whole entry): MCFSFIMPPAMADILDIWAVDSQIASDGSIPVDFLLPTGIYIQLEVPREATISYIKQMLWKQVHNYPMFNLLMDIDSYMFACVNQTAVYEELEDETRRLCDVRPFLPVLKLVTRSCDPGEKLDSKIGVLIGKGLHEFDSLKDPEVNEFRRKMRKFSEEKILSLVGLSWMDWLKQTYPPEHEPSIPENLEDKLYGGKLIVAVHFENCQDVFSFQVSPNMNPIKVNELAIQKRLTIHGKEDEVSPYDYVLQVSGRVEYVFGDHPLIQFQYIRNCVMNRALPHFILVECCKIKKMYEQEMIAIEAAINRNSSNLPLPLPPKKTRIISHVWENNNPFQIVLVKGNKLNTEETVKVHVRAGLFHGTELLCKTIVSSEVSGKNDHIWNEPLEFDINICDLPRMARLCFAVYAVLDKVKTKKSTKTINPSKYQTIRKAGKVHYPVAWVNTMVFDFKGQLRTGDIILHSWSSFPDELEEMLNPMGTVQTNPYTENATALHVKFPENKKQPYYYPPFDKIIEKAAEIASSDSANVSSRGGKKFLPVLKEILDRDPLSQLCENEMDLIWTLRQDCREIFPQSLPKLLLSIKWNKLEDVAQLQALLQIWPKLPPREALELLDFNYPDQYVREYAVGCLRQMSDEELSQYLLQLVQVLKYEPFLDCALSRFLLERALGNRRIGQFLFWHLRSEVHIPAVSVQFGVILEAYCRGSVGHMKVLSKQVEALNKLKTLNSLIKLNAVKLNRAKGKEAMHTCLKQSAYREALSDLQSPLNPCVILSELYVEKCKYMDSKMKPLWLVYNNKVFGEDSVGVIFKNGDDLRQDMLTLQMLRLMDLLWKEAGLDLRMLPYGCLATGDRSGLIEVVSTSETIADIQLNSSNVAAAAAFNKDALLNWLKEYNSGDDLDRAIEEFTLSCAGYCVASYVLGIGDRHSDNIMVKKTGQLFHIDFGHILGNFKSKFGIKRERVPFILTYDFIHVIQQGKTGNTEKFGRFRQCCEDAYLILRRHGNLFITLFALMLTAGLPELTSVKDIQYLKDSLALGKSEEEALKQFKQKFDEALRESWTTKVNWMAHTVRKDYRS
Procedure, shortened: as §1

FAK = molecular target: T15, FAK (Homo sapiens, UniProt Q05397)
T15 construct: purchased Ambit (DiscoverX) KINOMEscan; Cerep
Procedure, shortened: as §1

RIOK3 = molecular target: T16, RIOK3 (Homo sapiens, UniProt O14730)
T16 construct: purchased Ambit (DiscoverX) KINOMEscan; Cerep
Procedure, shortened: as §1

FGFR3 = molecular target: T17, FGFR3 (Homo sapiens, UniProt P22607)
T17 construct: purchased Ambit (DiscoverX) KINOMEscan; Cerep
Procedure, shortened: as §1

DAPK1 = molecular target: T18, DAPK1 (Homo sapiens, UniProt P53355)
T18 construct: purchased Ambit (DiscoverX) KINOMEscan; Cerep
Procedure, shortened: as §1

ACVR1b = molecular target: T19, ACVR1b (Homo sapiens, UniProt P36896)
T19 construct: purchased Ambit (DiscoverX) KINOMEscan; Cerep
Procedure, shortened: as §1

GSK3b = molecular target: T20, GSK3b (Homo sapiens, UniProt P49841)
T20 construct: purchased Ambit (DiscoverX) KINOMEscan; Cerep
Procedure, shortened: as §1

PAK4 = molecular target: T21, PAK4 (Homo sapiens, UniProt O96013)
T21 construct: purchased Ambit (DiscoverX) KINOMEscan; Cerep
Procedure, shortened: as §1

CSF1R = molecular target: T22, CSF1R (Homo sapiens, UniProt P07333)
T22 construct: purchased Ambit (DiscoverX) KINOMEscan; Cerep
Procedure, shortened: as §1

MLCK = molecular target: T23, MLCK (Homo sapiens, UniProt Q32MK0)
T23 construct: purchased Ambit (DiscoverX) KINOMEscan; Cerep
T23 sequence (Q32MK0 whole entry): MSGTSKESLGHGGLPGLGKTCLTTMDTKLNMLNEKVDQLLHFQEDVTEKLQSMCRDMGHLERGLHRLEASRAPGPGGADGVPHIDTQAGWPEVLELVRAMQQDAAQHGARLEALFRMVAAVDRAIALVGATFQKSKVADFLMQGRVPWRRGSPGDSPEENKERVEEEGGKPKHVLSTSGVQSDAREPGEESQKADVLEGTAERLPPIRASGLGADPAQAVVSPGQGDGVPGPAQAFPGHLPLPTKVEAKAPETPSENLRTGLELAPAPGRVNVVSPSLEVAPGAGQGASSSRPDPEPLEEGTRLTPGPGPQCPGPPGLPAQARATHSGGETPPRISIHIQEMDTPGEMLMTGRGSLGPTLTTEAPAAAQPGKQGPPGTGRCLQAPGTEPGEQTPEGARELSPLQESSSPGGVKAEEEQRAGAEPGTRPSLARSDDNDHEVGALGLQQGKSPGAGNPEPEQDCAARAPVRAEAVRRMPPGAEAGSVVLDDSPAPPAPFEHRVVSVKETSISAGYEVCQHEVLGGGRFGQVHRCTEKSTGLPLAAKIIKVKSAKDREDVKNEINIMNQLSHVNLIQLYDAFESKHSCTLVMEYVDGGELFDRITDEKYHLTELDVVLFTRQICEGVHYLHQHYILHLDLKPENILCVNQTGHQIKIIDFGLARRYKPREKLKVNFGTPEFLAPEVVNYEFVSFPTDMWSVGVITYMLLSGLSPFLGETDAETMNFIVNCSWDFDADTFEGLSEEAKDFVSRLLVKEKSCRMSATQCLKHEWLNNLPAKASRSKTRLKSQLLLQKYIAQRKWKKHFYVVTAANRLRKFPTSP
Procedure, shortened: as §1

TRKb = molecular target: T24, TRKb (Homo sapiens, UniProt Q16620)
T24 construct: purchased Ambit (DiscoverX) KINOMEscan; Cerep
Procedure, shortened: as §1

MST2 = molecular target: T25, MST2 (Homo sapiens, UniProt Q13188)
T25 construct: purchased Ambit (DiscoverX) KINOMEscan; Cerep
T25 sequence (Q13188 whole entry): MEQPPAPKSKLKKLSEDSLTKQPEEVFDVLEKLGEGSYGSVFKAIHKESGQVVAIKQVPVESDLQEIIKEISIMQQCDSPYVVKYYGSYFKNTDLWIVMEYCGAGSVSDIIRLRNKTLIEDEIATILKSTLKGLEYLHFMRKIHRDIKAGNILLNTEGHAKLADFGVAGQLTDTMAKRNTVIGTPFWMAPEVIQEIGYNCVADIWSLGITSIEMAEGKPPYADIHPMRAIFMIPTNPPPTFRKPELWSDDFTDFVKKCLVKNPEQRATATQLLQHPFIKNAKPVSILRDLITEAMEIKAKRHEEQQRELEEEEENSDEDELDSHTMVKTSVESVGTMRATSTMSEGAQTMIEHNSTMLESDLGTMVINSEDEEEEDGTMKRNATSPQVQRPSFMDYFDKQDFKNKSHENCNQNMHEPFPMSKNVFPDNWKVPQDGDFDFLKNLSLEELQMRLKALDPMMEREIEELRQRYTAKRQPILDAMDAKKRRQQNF
Procedure, shortened: as §1

PAK7 = molecular target: T26, PAK7 (Homo sapiens, UniProt Q9P286)
T26 construct: purchased Ambit (DiscoverX) KINOMEscan; Cerep
Procedure, shortened: as §1

ULK2 = molecular target: T27, ULK2 (Homo sapiens, UniProt Q8IYT8)
T27 construct: purchased Ambit (DiscoverX) KINOMEscan; Cerep
T27 sequence (Q8IYT8 whole entry): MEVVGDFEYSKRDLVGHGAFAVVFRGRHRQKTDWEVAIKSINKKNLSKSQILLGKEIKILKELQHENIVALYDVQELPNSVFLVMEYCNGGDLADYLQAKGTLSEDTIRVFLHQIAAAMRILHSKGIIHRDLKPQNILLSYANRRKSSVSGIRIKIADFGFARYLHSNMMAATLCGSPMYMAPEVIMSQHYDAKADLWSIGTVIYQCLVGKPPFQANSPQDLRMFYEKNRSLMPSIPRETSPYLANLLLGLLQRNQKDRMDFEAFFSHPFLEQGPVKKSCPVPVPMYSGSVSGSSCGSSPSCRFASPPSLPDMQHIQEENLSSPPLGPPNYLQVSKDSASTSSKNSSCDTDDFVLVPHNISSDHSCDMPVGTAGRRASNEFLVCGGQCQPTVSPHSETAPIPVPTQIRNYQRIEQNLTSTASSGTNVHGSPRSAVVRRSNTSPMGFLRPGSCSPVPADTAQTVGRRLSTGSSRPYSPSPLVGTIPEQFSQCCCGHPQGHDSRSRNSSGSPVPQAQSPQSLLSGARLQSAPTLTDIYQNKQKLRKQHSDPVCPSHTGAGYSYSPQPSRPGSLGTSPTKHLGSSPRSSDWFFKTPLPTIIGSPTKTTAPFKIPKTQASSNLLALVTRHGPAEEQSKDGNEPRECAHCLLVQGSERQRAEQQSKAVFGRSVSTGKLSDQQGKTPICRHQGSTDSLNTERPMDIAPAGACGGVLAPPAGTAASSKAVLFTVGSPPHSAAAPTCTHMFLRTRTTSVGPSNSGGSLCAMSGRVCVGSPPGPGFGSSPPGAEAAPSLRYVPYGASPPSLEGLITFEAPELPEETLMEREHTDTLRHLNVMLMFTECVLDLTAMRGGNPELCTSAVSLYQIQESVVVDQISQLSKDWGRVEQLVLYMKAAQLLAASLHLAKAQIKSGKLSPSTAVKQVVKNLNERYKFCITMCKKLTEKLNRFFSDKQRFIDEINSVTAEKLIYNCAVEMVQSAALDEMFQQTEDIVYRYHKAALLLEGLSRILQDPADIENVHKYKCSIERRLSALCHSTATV
Procedure, shortened: as §1

PKAC-beta = molecular target: T28, PKAC-beta (Homo sapiens, UniProt P22694)
T28 construct: purchased Ambit (DiscoverX) KINOMEscan; Cerep
Procedure, shortened: as §1

CSNK2a1 = molecular target: T29, CSNK2a1 (Homo sapiens, UniProt P68400)
T29 construct: purchased Ambit (DiscoverX) KINOMEscan; Cerep
T29 sequence (P68400 whole entry): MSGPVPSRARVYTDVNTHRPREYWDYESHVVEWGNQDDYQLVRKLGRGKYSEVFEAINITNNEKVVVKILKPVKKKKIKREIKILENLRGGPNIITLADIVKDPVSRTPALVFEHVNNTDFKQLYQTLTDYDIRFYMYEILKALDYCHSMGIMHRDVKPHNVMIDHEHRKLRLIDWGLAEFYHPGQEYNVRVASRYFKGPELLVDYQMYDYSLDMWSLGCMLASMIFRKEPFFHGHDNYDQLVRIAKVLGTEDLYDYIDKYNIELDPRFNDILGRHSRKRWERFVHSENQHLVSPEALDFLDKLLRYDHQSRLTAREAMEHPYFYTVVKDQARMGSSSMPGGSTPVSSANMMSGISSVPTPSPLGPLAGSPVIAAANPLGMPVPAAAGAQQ
Procedure, shortened: as §1

ASK1 = molecular target: T30, ASK1 (Homo sapiens, UniProt Q99683)
T30 construct: purchased Ambit (DiscoverX) KINOMEscan; Cerep
Procedure, shortened: as §1

ROS1 = molecular target: T31, ROS1 (Homo sapiens, UniProt P08922)
T31 construct: purchased Ambit (DiscoverX) KINOMEscan; Cerep
Procedure, shortened: as §1

KIT(L576P) = molecular target: T32, KIT(L576P) (Homo sapiens, UniProt P10721, L576P)
T32 construct: purchased Ambit (DiscoverX) KINOMEscan; Cerep
Procedure, shortened: as §1

BRAF = molecular target: T33, BRAF (Homo sapiens, UniProt P15056)
T33 construct: purchased Ambit (DiscoverX) KINOMEscan; Cerep
Procedure, shortened: as §1

CCCCN1CCN(C(=N)c2cccc(NC(=O)Nc3ccc(S(=O)(=O)NCc4ccc(S(N)(=O)=O)cc4)cc3)c2)CC1 [SC81458, 4-(3-(3-((4-butylpiperazin-1-yl)(imino)methyl)phenyl)ureido)-N-(4-sulfamoylbenzyl) benzenesulfonamide]
remaining binding at 10 µM (BMX): 100%
remaining binding at 10 µM (AMPK-alpha2): 96%
remaining binding at 10 µM (NLK): 95%
remaining binding at 10 µM (ICK): 73%
remaining binding at 10 µM (MST4): 100%
remaining binding at 10 µM [1]: 85%
remaining binding at 10 µM (MEK1): 100%
remaining binding at 10 µM (MYO3b): 100%
remaining binding at 10 µM (PAK2): 100%
remaining binding at 10 µM (ERK5): 100%
remaining binding at 10 µM (EGFR(E46-A750del)): 96%
remaining binding at 10 µM (IKK-epsilon): 100%
remaining binding at 10 µM (PIK3CA(H1047Y)): 100%
remaining binding at 10 µM (PIK3Cb): 70%
remaining binding at 10 µM (FAK): 100%
remaining binding at 10 µM (RIOK3): 77%
remaining binding at 10 µM (FGFR3): 100%
remaining binding at 10 µM (DAPK1): 100%
remaining binding at 10 µM (ACVR1b): 100%
remaining binding at 10 µM (GSK3b): 100%
remaining binding at 10 µM (PAK4): 100%
remaining binding at 10 µM (CSF1R): 82%
remaining binding at 10 µM (MLCK): 100%
remaining binding at 10 µM (TRKb): 100%
remaining binding at 10 µM (MST2): 100%
remaining binding at 10 µM (PAK7): 100%
remaining binding at 10 µM (ULK2): 100%
remaining binding at 10 µM (PKAC-beta): 78%
remaining binding at 10 µM (CSNK2a1): 62%
remaining binding at 10 µM (ASK1): 100%
remaining binding at 10 µM (ROS1): 100%
remaining binding at 10 µM (KIT(L576P)): 66%
remaining binding at 10 µM (BRAF): 95%
